{"source": "patent US10995068B2", "about": "“Synthetic sphingolipid-like molecules, drugs, methods of their synthesis and methods of treatment” (The Regents of the University of California, priority 2015, dated 2021)", "key": {"[1]": {"system": "PI(3,5)P2 levels in HeLa cells", "assay": "Measurement of PI(3,5)P2 by HPLC", "type": "cell-based", "protocol": "In certain embodiments of the invention, sphingolipid-like molecules mis-localize PIKfyve preventing its association with TRMPL1 and inducing vacuolation, instead of inhibiting PIKfyve kinase activity. While PIKfyve localized to the limiting membrane of YM201636-induced vacuoles as expected, PIKfyve was present in clumps between vacuoles in FTY720-treated cells (FIGS. 57C and 56F).\nMeasurement of PI(3,5)P2 by HPLC. HeLa cells were rinsed twice with PBS and incubated in for 48 h in inositol labeling medium (inositol-free DMEM containing 5 μg/ml transferrin, 5 μg/ml insulin, 10% dialyzed FCS, 20 mM HEPES, 2 mM L-glutamine), and 10 μCi/ml myo-[2-^3H]inositol. Cells were lysed with 4.5% perchloric acid, scraped, and centrifuged at 14,000×g for 10 min at 4° C. Cell pellets were rinsed with 100 mM EDTA, centrifuged again, and re-suspended in 50 μl of water. To deacylate lipids, 1 ml methanol/40% methylamine/butanol (45.7% methanol, 10.7% methylamine, 11.4% butanol) were added and then the mixture was transferred to a glass vial and incubated at 55° C. for 1 h. After cooling to room temperature, samples were vacuum dried and re-suspended in 0.5 ml water. […] The aqueous phase was vacuum dried and re-suspended in 75 μl water and 50 μl of each sample was analyzed by HPLC. PI(3,5)P2 levels were expressed as a percentage of total phosphatidylinositol."}, "[2]": {"system": "non-transformed murine OP9 bone marrow stromal cells and primary murine embryonic fibroblasts (MEFs)", "assay": "Sensitivity of non-transformed cells versus cancer cell lines", "type": "cell-based", "conditions": "OP9 and primary MEFs versus DLD-1, LS180, SW48, SW480, SW620, MDA-MB-231, PANC-1", "protocol": "Consistent with the bioenergetic mechanism described supra, cells with a higher anabolic rate should be more sensitive to sphingolipid-like compounds. In exemplary experiments testing this mechanism, murine FL5.12 cells with different anabolic rates were treated with SH-BC-893. The anabolic rate of FL5.12 cells can be titrated by modulating the levels of their required growth factor, IL-3; comparing FL5.12 cells grown in high and low IL-3 allows the impact of elevated growth factor signaling and anabolism to be evaluated in a constant genetic background. High concentrations of IL-3 drive aerobic glycolysis and a rapid doubling time (12 h). Reducing IL-3 levels slows proliferation and increases oxidative phosphorylation without compromising cell viability (FIGS. 53A and 53B). […] Many of these cancer cell lines carry activating mutations in Ras. […]\nCell culture and reagents. […] Cell viability was measured by vital dye exclusion using either propidium iodide or DAPI at 1 μg/ml. Analysis of cell surface 4F2hc levels with PE-conjugated anti-CD98 was restricted to viable cells as determined by DAPI exclusion. Anchorage-independent growth of SW620 cells was measured in DMEM-10 containing 0.35% low melt agarose with a 0.5% agarose bottom layer. […]"}}}
{"smiles": "CCCCCCCCc1ccc(CCC(N)(CO)CO)cc1.Cl", "note": "[FTY720, 2-Amino-2-[2-(4-octylphenyl)ethyl]propane 1,3-diol hydrochloride, reference compound]", "values": [{"measurement": "PI(3,5)P2 levels", "setting": "[1]", "result": "did not inhibit PIKfyve kinase activity or reduce PI(3,5)P2 levels"}]}
{"smiles": "CCCCCCCCc1ccc([C@H]2CCN[C@@H]2CO)cc1.Cl", "note": "[Compound 5, (2S,3R)-2-(hydroxymethyl)-3-(4-octylphenyl)Pyrrolidinium chloride]", "values": [{"measurement": "sensitivity compared with human cancer cell lines", "setting": "[2]", "result": "less sensitive"}]}
